Consider 25 compounds from paper PMC8849047, “Salicylate metal-binding isosteres as fragments for metalloenzyme inhibition” (Chemical Science, 2022).

SMILES strings stand for the structures. Bounds are passed on as bounds.

Series [1] concerns the target T1, Recombinant human glyoxalase I (GLO1) (Homo sapiens, UniProt Q04760).
T1 construct: purchased R&D Systems 4959-GL
T1 sequence (Q04760 2-184 limits assumed): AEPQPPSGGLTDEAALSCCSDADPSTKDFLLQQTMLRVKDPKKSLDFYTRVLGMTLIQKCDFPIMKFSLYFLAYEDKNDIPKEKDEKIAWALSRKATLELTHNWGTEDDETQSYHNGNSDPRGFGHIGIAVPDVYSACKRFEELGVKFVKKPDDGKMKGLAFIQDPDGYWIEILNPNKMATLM
As to the kind of experiment: GLO1 enzyme inhibition assay (absorbance at 240 nm). It counts as biochemical. The settings on record: for IC50: dose-response curves, read-out: IC50 against GLO1; for inhibition at 100 µM: standard deviation in parentheses, read-out: %inhib GLO1. How it is done:
To evaluate if the salicylate MBIs could serve as starting points for future FBDD campaigns, the MBI library was screened for inhibitory activity against human glyoxalase I (GLO1) at fragment concentrations of 100 μM (Table 2). […] Recombinant human glyoxalase I (GLO1) was purchased from R&D Systems (catalog #4959-GL). Assays were carried out in 0.1 M sodium phosphate, pH 7.0 buffer, utilizing 96-well clear UV plates (Corning UV Transparent Microplates, catalog #3635). A fresh solution of GSH (100 mM) and methylglyoxal (MG) (100 mM) was prepared in Millipore grade water. […] The substrate mixture was vortexed vigorously for 45 s and then allowed to sit at room temperature for 15 min. The initial well volume was 50 μL containing GLO1 (40 ng) and inhibitor. This protein and inhibitor mixture was incubated for 15–20 min prior to addition of the substrate. […] The enzyme activity was measured utilizing a Biotek Synergy HT or H4 plate reader by measuring absorbance at 240 nm every 1 min for a duration of 8 min. The rate of absorbance increase was compared for samples versus controls containing no inhibitor (set at 100% activity). The absorbance reading for background wells containing DMSO, buffer, and substrate (no enzyme or inhibitor) was subtracted from the experimental wells. […] Dose-response curves were generated, analysed and fitted to obtain IC50 values (see ESI ^†).
5. Single Point screening
Single point screening of salicylate MBI library against GLO1 at 100 µM inhibitor concentration. Chugai 1 (4,6-diphenyl-N-hydroxypyridone) 4 as positive control. […]
6. Dose-response curves against GLO1
The raw data from the GLO1 assay was background corrected and normalized from 0 to 100 with 100 being the largest mean of each dataset. A variable slope log-logistic model was chosen for curve fitting.
The corresponding datapoints are shown as empty bullets and were not included in the curve-fitting. The resulting restricted datasets were fitted according to a literature procedure setting the lower limit of the dose-response curve to zero. This compensates for the loss of information caused by trimming of the dataset. 5,6
Figure S7. Dose-response curve of 11 against GLO1.

Series [2] relates to influenza H1N1 N-terminal PA endonuclease (PAN). As to the kind of experiment: PAN endonuclease inhibition assay (fluorescent ssDNA-oligo substrate). It counts as biochemical. The note with it: 100 μM; standard deviation in parentheses.
Series [3] in a line: log P by potentiometric titration octanol/water (Sirius T3); log D7.4 calculated from pKa and log P. It counts as physicochemical. The note with it: for logD: pH 7.4. How it is done:
In addition to gaining an understanding about the metal coordinating properties of the salicylate MBIs by using [(Tp^Ph,Me)Zn(MBI)] model complexes, the physicochemical properties of the MBIs were also studied. The acidity (pKa) and lipophilicity (log P) were measured using potentiometric methods and the lipophilicity at physiological pH (log D7.4) was calculated from these two values (Table 1).[23–25]
(§1) Physicochemical properties were determined using a Sirius T3 instrument.[23–25] […] The pKa of a compound was determined by analysing each MBI sample in triplicate using potentiometric titrations. Experiments were typically performed over a pH range of 2.0–12.0. Standard deviations were derived from fitting all three replicate experiments. For water insoluble compounds methanol was added and the obtained apparent pKa (psKa) was extrapolated to the aqueous pKa by the Yasuda–Shedlovsky procedure. log P was determined via potentiometric titrations in the presence of varying ratios of octanol and water. The presence of octanol shifts the pKa of ionizable species, and based on the shifts, a log P can be determined. Measurements for log P determination were typically performed over a pH range of 2.0–12.0. Three experiments with varying ratios of water:octanol was performed, allowing for a standard deviation to be determined from the fitting of all measurements. MBI sample sizes were ∼0.5 mg for both pKa and log P measurements.

Series [4] addresses T2, Human recombinant MMP-3 catalytic domain (Homo sapiens, UniProt P08254).
T2 construct: Human recombinant MMP-3 catalytic domain was purchased; purchased ENZO Life Sciences BML-SE109-9090
As to the kind of experiment: MMP-3 enzyme inhibition assay (chromogenic substrate, 412 nm). It counts as biochemical. The note with it: standard deviation in parentheses, read-out: %inhib MMP-3. How it is done: To probe the selectivity of the salicylate MBIs, the library was screened against matrix metalloproteinase-3 (MMP-3) at fragment concentrations of 100 μM (Table 2).
Human recombinant MMP-3 catalytic domain was purchased from ENZO Life Sciences (catalog # BML-SE109-9090). Assays were carried out in clear Costar 96-well, half-area, flat-bottom assay plates (catalog # 80-2404). Each well contained a total volume of 100 μL including buffer (50 mM MES, 10 mM CaCl2, 0.05% Brij-35, 1 mM DNTB, pH 6.0), MMP-3 (2 U), and the fragment solution. After a 30 min incubation period at 37 °C, the reaction was initiated by the addition of 10 μL of chromogenic MMP-3 substrate (100 μM final concentration, Ac-Pro-Leu-Gly-[2-mercap-to-4-methyl-pentanoyl]-Leu-Gly-OC2H5, ENZO Life Sciences, catalog #BML-P125-0005). Absorbance was monitored at 412 nm using a Bio-Tek ELx 808 colorimetric plate reader, and measurements were recorded every minute for 10 min. The rate of absorbance increase was compared for samples versus negative controls (no inhibitor, arbitrarily set as 100% activity).
5. Single Point screening […]
Figure S5. Single point screening of salicylate MBI library against MMP-3 at 100 µM inhibitor
concentration. NNGH as positive control.

The nature of series [5]: pKa by potentiometric titration (Sirius T3). It counts as physicochemical. Here is the method:
In addition to gaining an understanding about the metal coordinating properties of the salicylate MBIs by using [(Tp^Ph,Me)Zn(MBI)] model complexes, the physicochemical properties of the MBIs were also studied.
as §1

T2 sequence (P08254 100-272 limits assumed): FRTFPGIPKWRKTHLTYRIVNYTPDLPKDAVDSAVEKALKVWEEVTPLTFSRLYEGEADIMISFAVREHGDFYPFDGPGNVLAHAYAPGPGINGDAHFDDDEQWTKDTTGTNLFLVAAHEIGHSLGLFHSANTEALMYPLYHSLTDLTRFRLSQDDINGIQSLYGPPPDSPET

For orientation: IC50 means the concentration at which inhibition is half-maximal. In the case of `Oc1ccc(-c2ccccc2)cc1-c1nc2ccccc2s1` [Compound 11a], the IC50 in series [1] stood at 5 ± 1.5 µM.
The logP is the decadic logarithm of the partition coefficient of the neutral form, usually between octanol and water. The term logD denotes lipophilicity at a set pH, counting ionised and neutral species. The term pKa denotes the negative logarithm of the acid dissociation constant. A low value points to a stronger acid or weaker base. For the compound `CONC(=O)c1cccc2nc[nH]c12` [Compound 18], the “%inhib Endo (PAN)” value in series [2] was 22 (7) %. For the same compound, the logP in series [3] was 0.05. Besides, the logD in series [3] is 0.01. Also, the inhibition at 100 µM was found to be 20% in series [1] and 0% in series [4]. Moreover, the pKa in series [5] (pKa) is 8.4; in series [5] (pKa (pKa,1)), 4.23; in series [5] (pKa (third printed value)), more than 12.
`Oc1ccccc1C1(O)COC1` [Compound 9]: the “%inhib Endo (PAN)” value in series [2] was 17 (9) %. In addition, in series [3], the logP was 0.43 and the logD is 0.42. The inhibition at 100 µM in series [1] worked out at 9%. In series [4], the inhibition at 100 µM turned out to be 0%. Also, the pKa in series [5] (pKa (pKa,1)) turned out to be 9.38.
For `CONC(=O)c1ccccc1NS(C)(=O)=O` [Compound 16], the “%inhib Endo (PAN)” value in series [2] is 44 (6) %. For the same compound, the logP in series [3] is 0.12. Also, the logD in series [3] was -0.33. Also, the inhibition at 100 µM worked out at 16% in series [1] and 0% in series [4]. Also, the results for the pKa in series [5] (pKa) and in series [5] (pKa (pKa,1)) were 11.3 and 7.15, respectively.
`COC(=O)c1cccc2nn[nH]c12` [Compound 15]: the “%inhib Endo (PAN)” value in series [2] was 42 (6) %. Also, in series [3], the logP was 1.31 and the logD is 1.21. Further, in series [1], the inhibition at 100 µM was found to be 22%. The inhibition at 100 µM in series [4] was 0%. In addition, the pKa in series [5] (pKa (pKa,1)) amounted to 7.96.
Turning to `COC(=O)c1ccccc1O` [Compound 6], the “%inhib Endo (PAN)” value in series [2] is reported as 21 (6) %. In addition, in series [3], the logP is 2.19. The logD in series [3] is 2.19. Besides, the inhibition at 100 µM was determined as 10% in series [1] and 0% in series [4]. The pKa in series [5] (pKa (pKa,1)) was 9.8.
With `OC1(c2cccc3nc[nH]c23)COC1` [Compound 23], the “%inhib Endo (PAN)” value in series [2] is on record as 22 (8) %. Further, the values for the inhibition at 100 µM in series [1] and in series [4] were 10% and 4%, respectively.
On to `Oc1ccc(N2CCCC2)cc1-c1nc2ccccc2s1` [Compound 11f], for which the IC50 in series [1] came out at 4.4 ± 1.8 µM.
For `O=C(O)c1cccc2nc[nH]c12` [Compound 4], in series [2], the “%inhib Endo (PAN)” value came out at 0%. Further, the log partition coefficient (logP) in series [3] is -1.4. In addition, the logD in series [3] was -2.09. Further, the values for the inhibition at 100 µM in series [1] and in series [4] were 38% and 3%, respectively. Also, the pKa in series [5] (pKa) was determined as 5.49; in series [5] (pKa (pKa,1)) it was 3.04; in series [5] (pKa (third printed value)) it was 12.8.
Turning to `O=c1cc(-c2ccccc2)cc(-c2ccccc2)n1O` [1-hydroxy-4,6-diphenylpyridin-2(1H)-one, reference compound], the “GLO1 inhibition by positive control” value in series [1] (50 μM) is given as “complete inhibition”.
With `Oc1ccccc1-c1ncccn1` [Compound 10], the inhibition at 100 µM in series [1] stood at 15%; in series [4], 0%.
Take `OC1(c2cccc3nn[nH]c23)COC1` [Compound 24]: the “%inhib Endo (PAN)” value in series [2] is recorded as 32 (8) %. Further, the inhibition at 100 µM in series [1] worked out at 19%; in series [4], 0%.
With `COC(=O)c1cccc2nc[nH]c12` [Compound 14], the “%inhib Endo (PAN)” value in series [2] was 37 (5) %. In addition, the logP in series [3] was 1.73. The logD in series [3] was 1.73. Also, the inhibition at 100 µM in series [1] came out at 19%; in series [4] it was 7%. The pKa was 12.3 in series [5] (pKa) and 4.51 in series [5] (pKa (pKa,1)).
On to `Oc1ccccc1-c1nnn[nH]1` [Compound 8], for which the logP in series [3] is 1.54. In addition, the logD in series [3] was -0.46. For the same compound, the inhibition at 100 µM was 24% in series [1] and 6% in series [4]. For the same compound, the pKa in series [5] (pKa) came out at 10.9; in series [5] (pKa (pKa,1)) it was 4.63.
Regarding `O=C(O)c1cccc2nn[nH]c12` [Compound 5], the “%inhib Endo (PAN)” value in series [2] was 22 (7) %. Moreover, the logP in series [3] was 1.38. Moreover, the logD in series [3] is -2.37. The inhibition at 100 µM is 20% in series [1] and 0% in series [4]. Besides, the pKa turned out to be 9.29 in series [5] (pKa) and 3.49 in series [5] (pKa (pKa,1)).
On to `Oc1ccc(-c2cccc(Cl)c2)cc1-c1nc2ccccc2s1` [Compound 11c], for which the IC50 in series [1] was determined as 3.3 ± 0.7 µM.
Still for that read-out and setting: the value for `Oc1ccc(N2CCCCC2)cc1-c1nc2ccccc2s1` [Compound 11d] was more than 20 µM.
On to `COC(=O)c1cccc2oc(=O)[nH]c12` [Compound 13], for which the “%inhib Endo (PAN)” value in series [2] was 46 (7) %. In series [3], the logP is 1.24 and the logD is 1.22. In series [1], the inhibition at 100 µM amounted to 31%. Moreover, the inhibition at 100 µM in series [4] was determined as 0%. In series [5] (pKa (pKa,1)), this compound displayed a pKa of 8.78.
Consider `Oc1ccc(-c2ccoc2)cc1-c1nc2ccccc2s1` [Compound 11g], for which, in series [1], the IC50 was found to be 6.9 ± 2.8 µM.
For `CONC(=O)c1cccc2nn[nH]c12` [Compound 19], the “%inhib Endo (PAN)” value in series [2] is 31 (7) %. In addition, the logP in series [3] was 0.75. The logD in series [3] was 0.22. In addition, the inhibition at 100 µM in series [1] turned out to be 17%; in series [4] it was 0%. Further, the pKa is 9.93 in series [5] (pKa) and 6.99 in series [5] (pKa (pKa,1)).
Take `Oc1ccc(N2CCOCC2)cc1-c1nc2ccccc2s1` [Compound 11e]: the IC50 in series [1] is more than 50 µM.
On the same count and under the same terms, the value for `Cc1cccc(-c2ccc(O)c(-c3nc4ccccc4s3)c2)c1` [Compound 11b] was 6.8 ± 1.4 µM.
On to `c1cc(-c2nnn[nH]2)c2[nH]cnc2c1` [Compound 22], for which the inhibition at 100 µM in series [1] was determined as 50%; in series [4], 74%.
`O=c1[nH]c2c(-c3nnn[nH]3)cccc2o1` [Compound 21]: the “%inhib Endo (PAN)” value in series [2] is listed as 0%. The inhibition at 100 µM in series [1] amounted to 39%; in series [4] it was 0%.
For `CS(=O)(=O)Nc1ccccc1-c1ncccn1` [Compound 25], the “%inhib Endo (PAN)” value in series [2] was 21 (8) %. Also, the inhibition at 100 µM is 19% in series [1] and 0% in series [4].
